Measurements reported in publication PMC6979384, “Characterization of the plant homeodomain (PHD) reader family for their histone tail interactions” (Epigenetics & Chromatin, 2020).
Blank lines part the entries; values can stand above or below the substance they belong to.

Legend:
Experiment in all cases: Histone peptide microarray
Format in all cases: binding, human
Settings in all cases: arrays performed twice
[1] = test system: SP140L
How it was run: (§1)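 Steps: express and purify GST-tagged PHD reader; incubate 0.5 μM protein on a peptide microarray (293 histone peptides, single or combined PTMs) following an optimized protocol; average signal across 4 replicates.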

[2] = test system: PHF8
How it was run: as §1

[3] = test system: MLL5
How it was run: as §1

[4] = test system: CHD4 (PPCC)
How it was run: as §1

[5] = test system: PHF23
How it was run: as §1

[6] = test system: PHF2
How it was run: as §1

[7] = test system: KDM5A (1)
How it was run: as §1

[8] = test system: ING4
How it was run: as §1

[9] = test system: ING3
How it was run: as §1

[10] = test system: ING2
How it was run: as §1

[11] = test system: KDM7A
How it was run: as §1

[12] = test system: KDM4C (TTP)
How it was run: as §1

[13] = test system: ING1
How it was run: as §1

[14] = test system: DPF2 (PPC2W2)
How it was run: as §1

[15] = test system: BPTF (PB)
How it was run: as §1

[16] = test system: TAF3
How it was run: as §1

[17] = test system: CHD5 (PPCC)
How it was run: as §1

[18] = test system: KDM5B (1)
How it was run: as §1

[19] = test system: KDM5B (3)
How it was run: as §1

[20] = test system: RAG2
How it was run: as §1

[21] = test system: DIDO1
How it was run: as §1

[22] = test system: CHD5 (PCC)
How it was run: as §1

[23] = test system: KDM5A (3)
How it was run: as §1

[24] = test system: ING5
How it was run: as §1

[25] = test system: BAZ2B
How it was run: as §1

[26] = test system: MORC3 (CW)
How it was run: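 GST-tagged PHD readers, 0.5 μM, probed on a microarray of 293 synthetic histone peptides carrying single or combinatorial PTMs (optimized Petell protocol). Signals are averaged over 4 replicates and expressed as relative binding.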

[27] = test system: TRIM66 (PB)
How it was run: as §1

[28] = test system: PHF21A
How it was run: as §1

[29] = test system: PHF13
How it was run: as §1

[30] = test system: AIRE (PP)
How it was run: as §1

[31] = test system: PHRF1 (RP)
How it was run: as §1

Array Heatmap value (peptide array binding signal) ([1]; SP140L, GST-tagged, n of 4): 0.3812
Array Heatmap value (peptide array binding signal) ([2]; PHF8, GST-tagged, n of 4): 0.4334
Array Heatmap value (peptide array binding signal) ([3]; MLL5, GST-tagged, n of 4): 0.6112
Array Heatmap value (peptide array binding signal) ([4]; CHD4 (PPCC), GST-tagged, n of 4): 0.6413
Array Heatmap value (peptide array binding signal) ([5]; PHF23, GST-tagged, n of 4): 0.5869
Array Heatmap value (peptide array binding signal) ([6]; PHF2, GST-tagged, n of 4): 0.5123
Array Heatmap value (peptide array binding signal) ([7]; KDM5A (1), GST-tagged, n of 4): 0.5113
Array Heatmap value (peptide array binding signal) ([8]; ING4, GST-tagged, n of 4): 0.5057
Array Heatmap value (peptide array binding signal) ([9]; ING3, GST-tagged, n of 4): 0.4903
Array Heatmap value (peptide array binding signal) ([10]; ING2, GST-tagged, n of 4): 0.6399
Array Heatmap value (peptide array binding signal) ([11]; KDM7A, GST-tagged, n of 4): 0.5232
Array Heatmap value (peptide array binding signal) ([12]; KDM4C (TTP), GST-tagged, n of 4): 0.5571
Array Heatmap value (peptide array binding signal) ([13]; ING1, GST-tagged, n of 4): 0.59
Array Heatmap value (peptide array binding signal) ([14]; DPF2 (PPC2W2), GST-tagged, n of 4): 0.7579
Array Heatmap value (peptide array binding signal) ([15]; BPTF (PB), GST-tagged, n of 4): 0.3717
Array Heatmap value (peptide array binding signal) ([16]; TAF3, GST-tagged, n of 4): 0.2755
Array Heatmap value (peptide array binding signal) ([17]; CHD5 (PPCC), GST-tagged, n of 4): 0.5941
Array Heatmap value (peptide array binding signal) ([18]; KDM5B (1), GST-tagged, n of 4): 0.6648
Array Heatmap value (peptide array binding signal) ([19]; KDM5B (3), GST-tagged, n of 4): 0.4825
Array Heatmap value (peptide array binding signal) ([20]; RAG2, GST-tagged, n of 4): 0.2504
Array Heatmap value (peptide array binding signal) ([21]; DIDO1, GST-tagged, n of 4): 0.7788
Array Heatmap value (peptide array binding signal) ([22]; CHD5 (PCC), GST-tagged, n of 4): 0.7773
Array Heatmap value (peptide array binding signal) ([23]; KDM5A (3), GST-tagged, n of 4): 0.4938
Array Heatmap value (peptide array binding signal) ([24]; ING5, GST-tagged, n of 4): 0.397
Array Heatmap value (peptide array binding signal) ([25]; BAZ2B, GST-tagged, n of 4): 0.4957
Array Heatmap value (peptide array binding signal) ([26]; MORC3 (CW), GST-tagged, n of 4): 0.3763
Array Heatmap value (peptide array binding signal) ([27]; TRIM66 (PB), GST-tagged, n of 4): 0.5647
Array Heatmap value (peptide array binding signal) ([28]; PHF21A, GST-tagged, n of 4): 0.4741
Array Heatmap value (peptide array binding signal) ([29]; PHF13, GST-tagged, n of 4): 0.6442
Array Heatmap value (peptide array binding signal) ([30]; AIRE (PP), GST-tagged, n of 4): 0.5101
Array Heatmap value (peptide array binding signal) ([31]; PHRF1 (RP), GST-tagged, n of 4): 0.4628
Substance: H3 (21-44): H3 21-44

Substance: H3 (52-61): H3 52-61 (RRYQKSTELL; UniProt P68431 53-62, looked up, fragment)
Array Heatmap signal, SP140L ([1]; sheet "Array Heatmap", GST-tagged SP140L, total replicate number n = 4): 0.4012
Array Heatmap signal, PHF8 ([2]; sheet "Array Heatmap", GST-tagged PHF8, total replicate number n = 4): 0.404
Array Heatmap signal, MLL5 ([3]; sheet "Array Heatmap", GST-tagged MLL5, total replicate number n = 4): 0.6079
Array Heatmap signal, CHD4 (PPCC) ([4]; sheet "Array Heatmap", GST-tagged CHD4 (PPCC), total replicate number n = 4): 0.678
Array Heatmap signal, PHF23 ([5]; sheet "Array Heatmap", GST-tagged PHF23, total replicate number n = 4): 0.6261
Array Heatmap signal, PHF2 ([6]; sheet "Array Heatmap", GST-tagged PHF2, total replicate number n = 4): 0.6756
Array Heatmap signal, KDM5A (1) ([7]; sheet "Array Heatmap", GST-tagged KDM5A (1), total replicate number n = 4): 0.5239
Array Heatmap signal, ING4 ([8]; sheet "Array Heatmap", GST-tagged ING4, total replicate number n = 4): 0.5513
Array Heatmap signal, ING3 ([9]; sheet "Array Heatmap", GST-tagged ING3, total replicate number n = 4): 0.5651
Array Heatmap signal, ING2 ([10]; sheet "Array Heatmap", GST-tagged ING2, total replicate number n = 4): 0.6326
Array Heatmap signal, KDM7A ([11]; sheet "Array Heatmap", GST-tagged KDM7A, total replicate number n = 4): 0.4034
Array Heatmap signal, KDM4C (TTP) ([12]; sheet "Array Heatmap", GST-tagged KDM4C (TTP), total replicate number n = 4): 0.5685
Array Heatmap signal, ING1 ([13]; sheet "Array Heatmap", GST-tagged ING1, total replicate number n = 4): 0.6486
Array Heatmap signal, DPF2 (PPC2W2) ([14]; sheet "Array Heatmap", GST-tagged DPF2 (PPC2W2), total replicate number n = 4): 0.817
Array Heatmap signal, BPTF (PB) ([15]; sheet "Array Heatmap", GST-tagged BPTF (PB), total replicate number n = 4): 0.412
Array Heatmap signal, TAF3 ([16]; sheet "Array Heatmap", GST-tagged TAF3, total replicate number n = 4): 0.3129
Array Heatmap signal, CHD5 (PPCC) ([17]; sheet "Array Heatmap", GST-tagged CHD5 (PPCC), total replicate number n = 4): 0.6595
Array Heatmap signal, KDM5B (1) ([18]; sheet "Array Heatmap", GST-tagged KDM5B (1), total replicate number n = 4): 0.6945
Array Heatmap signal, KDM5B (3) ([19]; sheet "Array Heatmap", GST-tagged KDM5B (3), total replicate number n = 4): 0.517
Array Heatmap signal, RAG2 ([20]; sheet "Array Heatmap", GST-tagged RAG2, total replicate number n = 4): 0.2955
Array Heatmap signal, DIDO1 ([21]; sheet "Array Heatmap", GST-tagged DIDO1, total replicate number n = 4): 0.9
Array Heatmap signal, CHD5 (PCC) ([22]; sheet "Array Heatmap", GST-tagged CHD5 (PCC), total replicate number n = 4): 0.8381
Array Heatmap signal, KDM5A (3) ([23]; sheet "Array Heatmap", GST-tagged KDM5A (3), total replicate number n = 4): 0.5465
Array Heatmap signal, ING5 ([24]; sheet "Array Heatmap", GST-tagged ING5, total replicate number n = 4): 0.4351
Array Heatmap signal, BAZ2B ([25]; sheet "Array Heatmap", GST-tagged BAZ2B, total replicate number n = 4): 0.5444
Array Heatmap signal, MORC3 (CW) ([26]; sheet "Array Heatmap", GST-tagged MORC3 (CW), total replicate number n = 4): 0.4348
Array Heatmap signal, TRIM66 (PB) ([27]; sheet "Array Heatmap", GST-tagged TRIM66 (PB), total replicate number n = 4): 0.6688
Array Heatmap signal, PHF21A ([28]; sheet "Array Heatmap", GST-tagged PHF21A, total replicate number n = 4): 0.5243
Array Heatmap signal, PHF13 ([29]; sheet "Array Heatmap", GST-tagged PHF13, total replicate number n = 4): 0.7152
Array Heatmap signal, AIRE (PP) ([30]; sheet "Array Heatmap", GST-tagged AIRE (PP), total replicate number n = 4): 0.514
Array Heatmap signal, PHRF1 (RP) ([31]; sheet "Array Heatmap", GST-tagged PHRF1 (RP), total replicate number n = 4): 0.5632
